Results as given in US4537956A, “Antibiotics X-14889 A, C and D” (Hoffmann-La Roche Inc., priority 1983, dated 1985).
≈ marks a conversion by molar mass, not a printed value.

Tests used:
Assay in all cases: MIC in vitro, agar diffusion well method
Type in all cases: cell-based
[1] = test system: Bacillus megaterium ATCC 8011; settings: Bacillus megaterium ATCC 8011, agar diffusion well method
Source text: (§1) Minimal inhibitory concentration (mcg/ml)
(§2) *As determined by an agar diffusion well method.

[2] = test system: Bacillus sp. E ATCC 27359; settings: Bacillus sp. E ATCC 27359, agar diffusion well method
Source text: as §1, §2

[3] = test system: Bacillus sp. TA ATCC 27860; settings: Bacillus sp. TA ATCC 27860, agar diffusion well method
Source text: as §1, §2

[4] = test system: Bacillus subtilis ATCC 558; settings: Bacillus subtilis ATCC 558, agar diffusion well method
Source text: as §1, §2

[5] = test system: Candida albicans NRRL 477; settings: Candida albicans NRRL 477, agar diffusion well method
Source text: as §1, §2

[6] = test system: Mycobacterium phlei ATCC 355; settings: Mycobacterium phlei ATCC 355, agar diffusion well method
Source text: as §1, §2

[7] = test system: Paecilomyces varioti ATCC 28820; settings: Paecilomyces varioti ATCC 28820, agar diffusion well method
Source text: as §1, §2

[8] = test system: Penicillium digitatum ATCC 26821; settings: Penicillium digitatum ATCC 26821, agar diffusion well method
Source text: as §1, §2

[9] = test system: Saccharomyces cerevisiae ATCC 4226; settings: Saccharomyces cerevisiae ATCC 4226, agar diffusion well method
Source text: as §1, §2

[10] = test system: Staphylococcus aureus ATCC 6538P
Source text: as §1, §2

[11] = test system: Streptococcus faecium ATCC 8043; settings: Streptococcus faecium ATCC 8043, agar diffusion well method
Source text: as §1, §2

[12] = test system: Streptomyces cellulosae ATCC 3313; settings: Streptomyces cellulosae ATCC 3313, agar diffusion well method
Source text: as §1, §2

With `CC[C@H](C(=O)[C@@H](C)[C@@H](O)[C@H](C)[C@H]1O[C@@](O)(CC)[C@@H](C)C[C@@H]1C)[C@H]1O[C@](C)(C23OC(C)C(CC)(CC2C)O3)C[C@@H]1C` (stereo partly drawn) [Antibiotic X-14889D] the Minimal inhibitory concentration [1] was 1000 µg/mL (≈ 1760 µM), the Minimal inhibitory concentration [2] was 7.9 µg/mL (≈ 13.9 µM) and the Minimal inhibitory concentration [3] was 1000 µg/mL (≈ 1760 µM). It also gave a Minimal inhibitory concentration [4] of 1000 µg/mL (≈ 1760 µM), a Minimal inhibitory concentration [5] of 1000 µg/mL (≈ 1760 µM) and a Minimal inhibitory concentration [6] of 1000 µg/mL (≈ 1760 µM). It also gave a Minimal inhibitory concentration [7] of 1000 µg/mL (≈ 1760 µM), a Minimal inhibitory concentration [8] of 1000 µg/mL (≈ 1760 µM) and a Minimal inhibitory concentration [9] of 1000 µg/mL (≈ 1760 µM). The Minimal inhibitory concentration [10] was 125 µg/mL (≈ 221 µM), the Minimal inhibitory concentration [11] was 125 µg/mL (≈ 221 µM) and the Minimal inhibitory concentration [12] was 1000 µg/mL (≈ 1760 µM).
